In patent US8101761B2, “(E)-N-{3-[1-(8-fluoro-11H-10-OXA-1-AZA-dibenzo [A,D] cyclohepten-5ylidene)-propyl]-phenyl}-methanesulfonamide as glucocorticoid receptor modulator for the treatment of rheumatoid arthritis” (Eli Lilly and Company, priority 2008, dated 2012):
Where two headings read alike, the source gives them in different places.

Key:
[1] = tested on: carrageenan-induced paw edema in male Sprague-Dawley rats; assay: Carrageenan-induced paw edema (CPE) model; assay type: in vivo; conditions: rat, oral gavage 2 h before carrageenan, paws taken 3 h after, mean of 5 determinations
Description: Carrageenans are a group of polysaccharides which can induce an acute inflammatory response in animals. Cardinal signs of inflammation including edema, hyperalgesia and erythema are developed in the injection site immediately following injection. The CPE model is a recognized model of inflammation and can be used to evaluate the anti-inflammatory effects of glucocorticoid receptor ligands.
To evaluate the anti-inflammatory effects of Compound (I), the compound is formulated in a vehicle comprising 0.5% carboxymethyl cellulose and 0.25% Tween 80 then administered orally via gavage to male Sprague-Dawley rats (180-200 g). For comparison, prednisolone may be administered orally in the same vehicle. Two hours later, 1% carrageenan in 50 μl of 0.9% pyrogen free saline is injected into the subplantar regions of the right hind paw. Rats are euthanized by CO2 at 3 hours after the carrageenan injection. Paws are removed then weighed using a microbalance. Paws are then dissected by making several cuts on the paw surface and immediately immersing into liquid nitrogen until frozen. Frozen paws are then centrifuged to extract the exudates. Exudate levels of IL-1β, a cytokine generated during the inflammatory response is then measured by ELISA according to manufacturers instructions. Total paw protein is also measured using a protein assay kit and the absolute level of IL-1β is normalized to yield a concentration value of ng IL-1β/mg total protein.

[2] = molecular target: T1, human MR (mineralocorticoid receptor) (Homo sapiens, UniProt P08235); assay: Nuclear hormone receptor competition binding assay, MR; conditions: HEK293 lysate overexpressing human MR, [3H]-aldosterone; mean of n=7
T1 construct: expressed in transfected cells; host or cells: HEK293 (293-MR lysate)
T1 sequence (P08235 1-984): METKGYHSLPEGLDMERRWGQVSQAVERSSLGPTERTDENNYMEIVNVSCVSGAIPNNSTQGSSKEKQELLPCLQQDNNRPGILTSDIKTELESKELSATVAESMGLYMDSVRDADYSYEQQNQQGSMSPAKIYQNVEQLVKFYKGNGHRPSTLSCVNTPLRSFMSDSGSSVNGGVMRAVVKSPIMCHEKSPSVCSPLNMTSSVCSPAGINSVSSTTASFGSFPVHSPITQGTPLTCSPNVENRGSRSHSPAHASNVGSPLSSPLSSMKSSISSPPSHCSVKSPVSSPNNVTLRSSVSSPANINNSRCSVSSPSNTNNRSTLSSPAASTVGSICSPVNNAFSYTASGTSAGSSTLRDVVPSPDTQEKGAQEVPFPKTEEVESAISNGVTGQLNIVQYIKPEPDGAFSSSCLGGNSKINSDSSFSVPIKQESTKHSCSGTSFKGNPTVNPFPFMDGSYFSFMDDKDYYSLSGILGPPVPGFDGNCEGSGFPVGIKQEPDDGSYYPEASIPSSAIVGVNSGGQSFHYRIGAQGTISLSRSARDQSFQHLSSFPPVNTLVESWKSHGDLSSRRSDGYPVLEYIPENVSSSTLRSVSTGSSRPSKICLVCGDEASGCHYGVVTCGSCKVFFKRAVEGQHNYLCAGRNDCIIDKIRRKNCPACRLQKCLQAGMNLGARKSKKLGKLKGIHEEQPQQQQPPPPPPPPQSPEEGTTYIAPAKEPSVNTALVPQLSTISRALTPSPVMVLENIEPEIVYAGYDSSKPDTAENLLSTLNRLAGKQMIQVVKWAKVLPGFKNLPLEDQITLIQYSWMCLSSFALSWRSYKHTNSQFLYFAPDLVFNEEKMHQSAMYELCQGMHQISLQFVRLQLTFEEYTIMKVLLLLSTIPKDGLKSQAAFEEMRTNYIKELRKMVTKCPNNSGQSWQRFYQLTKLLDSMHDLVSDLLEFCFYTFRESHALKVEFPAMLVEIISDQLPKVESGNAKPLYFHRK
Procedure: Cell lysates from human embryonic kidney HEK293 cells overexpressing human GR (glucocorticoid receptor), AR (androgen receptor), MR (mineralocorticoid receptor), or PR (progesterone receptor) are used for receptor-ligand competition binding assays to determine Ki values.
Briefly, steroid receptor competition binding assays are run in a buffer containing 20 mM Hepes buffer (pH=7.6), 0.2 mM EDTA, 75 mM NaCl, 1.5 mM MgCl2, 20% glycerol, 20 mM sodium molybdate, 0.2 mM DTT (dithiothreitol), 20 μg/ml aprotinin and 20 μg/ml leupeptin. Typically, steroid receptor binding assays include radio-labeled ligands, such as 0.3 nM [^3H]-dexamethasone for GR binding, 0.36 nM [^3H]-methyltrienolone for AR binding, 0.25 nM [^3H]-aldosterone for MR binding, and 0.29 nM [^3H]-methyltrienolone for PR binding, and either 20 μg 293-GR lysate, 22 μg 293-AR lysate, 20 μg 293-MR lysate or 40 μg 293-PR lysate per well. Assays are typically run in 96-well format. Competing test compounds are added at various concentrations ranging from about 0.01 nM to 10 μM. Non-specific binding is determined in the presence of 500 nM dexamethasone for GR binding, 500 nM aldosterone for MR binding, or 500 nM methyltrienolone for AR and PR binding. […] After an incubation of 2 hours, plates are read in a Wallac Microbeta counter. […]

Ki [2]: ~9.2 nM
SMILES: CC/C(=C1\c2ccc(F)cc2OCc2ncccc21)c1cccc(NS(C)(=O)=O)c1 [Compound (I), (E)-N-{3-[1-(8-Fluoro-11H-10-oxa-1-aza-dibenzo[a,d]cyclohepten-5-ylidene)-propyl]-phenyl}-methanesulfonamide]
ED50 ([1]; read-out: ED50, inhibition of carrageenan induced paw weight gain): ~2.8 mg/kg
ED50 ([1]; read-out: ED50, reduction of paw exudate levels of IL-1β): ~3.2 mg/kg
